In brackets after ≈: the same amount, converted by molar mass. Like-named read-outs stand apart in the source and are kept apart here.
How the values were obtained:
Format in all cases: cell-based
[1] = test system: A. baumannii (HUMC1 strain); test: MIC by broth microdilution against A. baumannii in RPMI + 10% FCS; settings: Acinetobacter baumannii; HUMC1 strain; RPMI + 10% FCS; read-out: MIC A. baumannii
[2] = test system: M. abscessus subsp. abscessus ATCC 19977; test: MIC against M. abscessus in Middlebrook 7H9 + ADC; settings: Mycobacteroides abscessus
M. avium (ATCC 25291) = test: MIC against M. avium in CAMHB + ADC; settings: Mycobacterium avium, ATCC25291; ATCC 25291; CAMHB + ADC (5%); read-out: MIC M. avium
M. xenopi (ATCC 19250) = test: MIC against M. xenopi in CAMHB + ADC; settings: Mycobacterium xenopi, ATCC19250; ATCC 19250; CAMHB + ADC (5%); read-out: MIC M. xenopi
M. kansasii (ATCC 12478) = test: MIC against M. kansasii in CAMHB + ADC; settings: Mycobacterium kansasii, ATCC12478; ATCC 12478; CAMHB + ADC (5%); read-out: MIC M. kansasii
[3] = test system: S. aureus (UAMS-1625 strain); test: MIC by broth microdilution against S. aureus; settings: Staphylococcus aureus, read-out: MIC S. aureus
[4] = test system: A. baumannii RpoB H535L mutant; test: microbe, parasite or virus in culture; settings: Acinetobacter baumannii, RPOBH535LMUTANT, read-out: A. baumannii MIC in RPMI + FCS, RpoB H535L
[5] = test system: M. abscessus subsp. bolletii CCUG 50184; test: MIC against M. abscessus isolate in 7H9 + ADC; settings: Mycobacteroides abscessus, CCUG50184
[6] = test system: M. abscessus subsp. abscessus CCUG 71636; test: MIC against M. abscessus isolate in 7H9 + ADC; settings: Mycobacteroides abscessus, CCUG71636
[7] = test system: M. abscessus subsp. abscessus CCUG 71382; test: MIC against M. abscessus isolate in 7H9 + ADC; settings: Mycobacteroides abscessus, CCUG71382
[8] = test system: A. baumannii RpoB H535Q mutant; test: microbe, parasite or virus in culture; settings: Acinetobacter baumannii, RPOBH535QMUTANT, read-out: A. baumannii MIC in RPMI + FCS, RpoB H535Q
[9] = test system: Enterococcus faecalis (strain ATCC 51575); test: MIC against E. faecalis; settings: Enterococcus faecalis, ATCC51575, CAMHB
A. baumannii Arr-2 = test: microbe, parasite or virus in culture; settings: Acinetobacter baumannii, ARR2, read-out: A. baumannii MIC in RPMI + FCS, Arr-2
[10] = test system: A. baumannii wild type (WT); test: MIC against A. baumannii isolate in RPMI + FCS; settings: Acinetobacter baumannii; read-out: A. baumannii MIC in RPMI + FCS, WT
[11] = test system: Hemophilus influenzae (strain ATCC 49247); test: MIC against H. influenzae; settings: Haemophilus influenzae, ATCC49247, Hemophilus test medium broth
M. abscessus strains = test: MIC over the five tested M. abscessus strains in 7H9 + ADC; settings: Mycobacteroides abscessus, span over five isolates, read-out: MIC values against the tested M. abscessus strains
[12] = test system: A. baumannii RpoB H535C mutant; test: microbe, parasite or virus in culture; settings: Acinetobacter baumannii, RPOBH535CMUTANT, read-out: A. baumannii MIC in RPMI + FCS, RpoB H535C
[13] = test system: M. abscessus subsp. massiliense CCUG 48898; test: MIC against M. abscessus isolate in 7H9 + ADC; settings: Mycobacteroides abscessus, CCUG48898
[14] = test system: Staphylococcus epidermidis (strain ATCC 12228); test: MIC against S. epidermidis; settings: Staphylococcus epidermidis, ATCC12228, CAMHB
[15] = test system: Enterococcus faecium (strain NCTC 12204); test: MIC against E. faecium; settings: Enterococcus faecium, NCTC12204; strain NCTC 12204; CAMHB; read-out: MIC E. faecium
[16] = ATCC19977, ATCC 19977, 7H9 + ADC, read-out: MIC M. abscessus

SMILES | MIC [1] | MIC [2, 16] | MIC (M. avium (ATCC 25291)) | MIC (M. xenopi (ATCC 19250)) | MIC (M. kansasii (ATCC 12478)) | MIC [3] | other results
CO[C@H]1/C=C/O[C@@]2(C)Oc3c(C)c(O)c4c(c3C2=O)C2=NC3(CCN(CC(C)C)CC3)NC2=C(NC(=O)/C(C)=C\C=C\[C@H](C)[C@H](O)[C@@H](C)[C@@H](O)[C@@H](C)[C@H](OC(=O)CC(=O)N2CCCN(c3ncccn3)CC2)[C@@H]1C)C4=O [Compound 124] | ≤ 0.002 µg/mL | 0.125 µg/mL | 0.125 µg/mL | 0.125 µg/mL | 8 ng/mL | 0.03 µg/mL (≈ 0.0285 µM) | –
CO[C@H]1/C=C/O[C@@]2(C)Oc3c(C)c(O)c4c(c3C2=O)C2=NC3(CCN(CC(C)C)CC3)NC2=C(NC(=O)/C(C)=C\C=C\[C@H](C)[C@H](O)[C@@H](C)[C@@H](O)[C@@H](C)[C@H](OC(=O)CC(=O)N2CCCN(c3nccc(C(F)(F)F)n3)CC2)[C@@H]1C)C4=O [Compound 125] | 0.25 µg/mL | 0.125 µg/mL | 0.03 µg/mL | 0.06 µg/mL | 8 ng/mL | 0.5 µg/mL (≈ 0.447 µM) | –
CO[C@H]1/C=C/O[C@@]2(C)Oc3c(C)c(O)c4c(c3C2=O)C2=NC3(CCN(CC(C)C)CC3)NC2=C(NC(=O)/C(C)=C\C=C\[C@H](C)[C@H](O)[C@@H](C)[C@@H](O)[C@@H](C)[C@H](OC(=O)CC(=O)N2CCCN(Cc3ccccc3)CC2)[C@@H]1C)C4=O [Compound 126] | 0.004 µg/mL | – | 0.03 µg/mL | 0.03 µg/mL | 4 ng/mL | 0.125 µg/mL (≈ 0.118 µM) | MIC ([2]; ATCC19977, read-out: MIC M. abscessus): 0.125 µg/mL
CO[C@H]1/C=C/O[C@@]2(C)Oc3c(C)c(O)c4c(c3C2=O)C2=NC3(CCN(CC(C)C)CC3)NC2=C(NC(=O)/C(C)=C\C=C\[C@H](C)[C@H](O)[C@@H](C)[C@@H](O)[C@@H](C)[C@H](OC(=O)CC(=O)N2CCCN(Cc3ccc(F)cc3)CC2)[C@@H]1C)C4=O [Compound 127] | 0.06 µg/mL | 0.125 µg/mL | 0.125 µg/mL | 0.03 µg/mL | 8 ng/mL | 0.25 µg/mL (≈ 0.231 µM) | –
CO[C@H]1/C=C/O[C@@]2(C)Oc3c(C)c(O)c4c(c3C2=O)C2=NC3(CCN(CC(C)C)CC3)NC2=C(NC(=O)/C(C)=C\C=C\[C@H](C)[C@H](O)[C@@H](C)[C@@H](O)[C@@H](C)[C@H](OC(=O)CC(=O)N2CCCN(Cc3ccncc3)CC2)[C@@H]1C)C4=O [Compound 128] | ≤ 0.002 µg/mL | 0.25 µg/mL | 0.5 µg/mL | 0.25 µg/mL | 30 ng/mL | 0.06 µg/mL (≈ 0.0564 µM) | –
CO[C@H]1/C=C/O[C@@]2(C)Oc3c(C)c(O)c4c(O)c(c(/C=N/N5CCN(C)CC5)c(O)c4c3C2=O)NC(=O)/C(C)=C\C=C\[C@H](C)[C@H](O)[C@@H](C)[C@@H](O)[C@@H](C)[C@H](OC(C)=O)[C@@H]1C [Rifampicin, rifampicin] | – | – | – | – | – | – | MIC [4]: > 32 µg/mL; MIC [5]: > 32 µg/mL; MIC [6]: > 32 µg/mL; MIC ([2]; ATCC19977, read-out: M. abscessus MIC in 7H9 + ADC, abscessus ATCC 19977): > 32 µg/mL; MIC [7]: > 32 µg/mL; MIC [8]: > 32 µg/mL; MIC [9]: 1000 µg/mL (≈ 1220 µM); MIC (A. baumannii Arr-2): > 32 µg/mL; MIC [10]: 32 µg/mL; MIC [11]: 250 µg/mL (≈ 304 µM); MIC (M. abscessus strains): > 32 µg/mL; MIC [12]: > 32 µg/mL; MIC [13]: 32 µg/mL; MIC [14]: ≤ 2 µg/mL; MIC [15]: 500 µg/mL (≈ 608 µM)
